Experimental data from patent US8716256B2, “Method of therapy and diagnosis of atherosclerosis” (Kaoshiung Medical University, priority 2011, dated 2014).

Tests used:
Format in all cases: cell-based, human
[1] = test system: let-7g; assay: let-7g expression in HASMC by northern blot and real time PCR; details: HASMC treated with oxLDL plus suppressor; FIGS. 18, 21, 25
Procedure: In FIGS. 7 and 8, there is the relationship between oxLDL and let-7g in the HASMC. In the present embodiment, the HASMC are treated with various levels of oxLDL, for example 0, 20, 40 and 60 μg/ml, in order to monitor and to recorder the effect of oxLDL on let-7g. Similarly, the HASMC cell is grown in a 6-well plate till at a density of 2×10^5 cell/well, and then randomly assigned into plural groups with the treatment of 0, 20, 40 and 60 μg/ml oxLDL individually for 24 hours. Finally, total RNA samples of each group of HASMC are analyzed by northern blot and quantified real time PCR via above protocols. In the present embodiment, a primer pair of let-7g as set forth in SEQ ID NO: 7 and 8 is used in the teal time PCR analysis according to the same PCR program described above. Also, the northern blot of the present invention is determined by using a miRNA northern blot assay kit (Applied Biosystems, CA, USA). […]
(§1) In the present embodiment, the HASMCs are randomly assigned into four groups, including groups (O1), as a control; (O2), with treatment of oxLDL; (O3), with co-transfection of the OCT-1 shRNA; and (O4), with co-transfection of the OCT-1 shRNA and treatment of oxLDL, wherein total RNA samples and protein sample of those groups are extracted and analyzed by the real time PCR and the western blot of the present invention. […]

[2] = test system: OCT-1; assay: OCT-1 expression in HASMC by real time PCR and western blot; details: for protein levels of OCT-1 (western blot): HASMC with suppressor, with or without oxLDL, FIGS. 23, 28
Procedure: The following trials stress on the mechanism between let-7g, LOX-1, oxLDL and OCT-1. In FIG. 17, the expression of OCT-1 under various levels of oxLDL is shown. In the present embodiment, […], and then total RNA samples and protein samples of the HASMC are prepared and analyzed by the real time PCR and western blot assay of the present invention. Precisely, the preparation of the total RNA samples and the protein samples of the HASMC, also the PCR program and western blot assay are performed according to the above protocols. Moreover, a primer pair of OCT-1 set forth in SEQ ID NO. 19 and 20 is designed and used in real time PCR analysis, and a commercial OCT-1 antibody (Sigma-Aldrich Inc, MO, USA) is used in western blot assay.
In the present embodiment, primer pairs set forth in SEQ ID NO. 3, 4, 7, 8, 19, 20, the LOX-1 antibody, and the OCT-1 antibody are used respectively in PCR or western blot assay.
With reference to FIG. […] More specifically, […], such as 0, 25, 50, and 75 μg/ml, […] 2000, […] by real time PCR and western blot according to the protocols described above. Moreover, primer pairs set forth in SEQ ID NO. 19 and 20, and the OCT-1 antibody are used respectively in PCR or western blot analysis.

[3] = test system: LOX-1; assay: LOX-1 expression in HASMC by real time PCR and western blot; details: for oxLDL-induced LOX-1 expression (mRNA): HASMC treated with oxLDL plus suppressor, FIGS. 19, 22, 26; for protein levels of LOX-1 (western blot): HASMC with suppressor, with or without oxLDL, FIGS. 20, 23, 28
Procedure: With reference to FIG. 2, there center on the expression of oxLDL and LOX-1 in human aortic smooth muscle cells. In the present embodiment, a primary human aortic smooth muscle cells (HASMC) cell line purchased from Cascade Biologics (OR, USA) is prepared and treated with various levels of oxLDL. More specifically, the HASMC cell line is incubated in a commercial smooth muscle cell growth supplement (SMGS) medium (Cascade Biologics, OR, USA) at 37° C. in a humidified atmosphere of 95% air and 5% CO2.
In the present embodiment, the HASMC cell line is grown in a 6-well plate till at a density of 2×10^5 cell/well, and then randomly assigned into four groups. The four groups of HASMC are co-cultured with 0, 20, 40, and 60 μg/ml of oxLDL individually for 24 hours, followed by analyzing the gene expression of HASMC via real time polymerase chain reaction (PCR) and western blot. Total RNA samples of the four groups of HASMC are prepared by using a Trizol® reagent (Invitrogen, CA, USA), and further quantitatively confirmed by a spectrophotometer at A260/A280 readings. Then, cDNA samples of the four groups of HASMC are synthesized by using a random primer and a MultiScribe™ Reverse Transcriptase Kit (Applied Biosystems Inc, CA, USA). The cDNA samples of the four groups of HASMC are sequentially diluted in 2×SYBR Green PCR Master Mix (Applied Biosystems Inc, CA, USA) to carry out quantitative real time PCR analysis. In the present invention, a primer pair of LOX-1 is designed and used in the real time PCR analysis, wherein the primer pair of LOX-1 is set forth in SEQ ID NO. 3 and 4.
On the other hand, protein samples of the four groups of HASMC are prepared by harvesting the four groups of HASMC in RIPA buffer (Invitrogen, CA, USA) firstly and centrifuged at 4° C. 1,2000 rpm to obtain supernatants as total cell lysate of the four groups of HASMC. In the present embodiment, the four groups of protein lysate are denatured in a mixture of 2% SDS, 10 mM dithiothreitol, 60 mM Tris-HCl (pH6.8) and 0.1% bromphenol blue, and then analyzed by polyacrylamide/SDS gel. Data obtained from the polyacrylamide/SDS gel analysis are further transferred to PVDF membrane for western blot assay.
In FIG. 9, the expression of LOX-1 in HASMC under various levels of let-7g is monitored and reordered. […]
as §1

[4] = test system: 3'UTR region of LOX-1; assay: LOX-1 3'UTR luciferase reporter assay in CRL-1999 cells; details: groups U1 to U7, FIG. 12
From the text: Referring to FIGS. 10 and 11, the relationship between oxLDL, LOX-1 and let-7g is further identified. In the present invention, the 3′UTR region of LOX-1 is cloned into a commercial vector, preferably downstream of a reporter gene, such as a luciferase gene, for the sake of studying the effect of oxLDL and let-7g on LOX-1 by estimating the activity of the reporter gene. In the present embodiment, a pMIR-LOX-1-3UTR vector is obtained by PCR amplifying the 3′UTR region of LOX-1 in the chromosome DNA of HASMC with a primer pair set forth in SEQ ID NO. 9 and 10; and cloning the amplified 3′UTR region of LOX-1 into a pMIR-REpORT luciferase vector (Ambion Inc, TX, USA). Furthermore, the pMIR-LOX-1-3UTR vector of the present embodiment is transfected into a human smooth muscle cell line CRL-1999 purchased from ATCC (Manassas, Va., USA) by using lipofectamine 2000 (Invitrogen Inc, CA, USA). In the present embodiment, the CRL-1999 cell line of the present embodiment is incubated in F12K Kaighn's modification medium (GIBCO-BRL, MD, USA) with various levels of oxLDL and let-7g mimic, followed by analyzed the activity of luciferase by a Luciferase Assay System (Promega, WI, USA). […]

CC(=O)OCOC(=O)CN(CC(=O)OCOC(C)=O)c1ccc(C)cc1OCCOc1cc(C)ccc1N(CC(=O)OCOC(C)=O)CC(=O)OCOC(C)=O [MAPTAM]
oxLDL-mediated inhibition on let-7g (relative let-7g levels) [1]: decreased | oxLDL-induced OCT-1 expression (mRNA) ([2]; HASMC treated with oxLDL plus MAPTAM, FIG. 27): decreased | protein levels of OCT-1 (western blot) [2]: significant decrease | oxLDL-induced LOX-1 expression (mRNA) [3]: decreased | protein levels of LOX-1 (western blot) [3]: significant decrease

COc1ccc2c(c[n+](C)c3c4cc5c(cc4ccc23)OCO5)c1OC [chelerythrine]
oxLDL-mediated inhibition on let-7g (relative let-7g levels) [1]: inhibited | protein levels of OCT-1 (western blot) [2]: significant decrease | oxLDL-induced LOX-1 expression (mRNA) [3]: inhibited | protein levels of LOX-1 (western blot) [3]: significant decrease

let-7g: mature form of microRNA-let-7g, as set forth in SEQ ID NO. 2 (UGAGGUAGUAGUUUGUACAGUU; listed as RNA, chemistry not given here; listed as Homo sapiens)
luciferase activity, pMIR-LOX-1-3UTR versus pMIR-LOX-1 mutant 3'UTR [4]: targets to the 3′UTR region of LOX-1 to suppress the expression of LOX-1
